Source: ChEMBL document CHEMBL3301555, “MMV Malaria Box screening in pLDH viability assay against Plasmodium falciparum gametocytes”

tested on: Plasmodium falciparum; assay: MMV: Measure of pLDH activity as indication of parasite viability. Gametocytogenesis of 3D7 Plasmodium falciparum strain was induced in vitro and asexual parasites were depleted with N-acetylglucosamine. Gametocytes were treated with dihydroartemisinin, epoxomicin, methylene blue, primaquine, puromycin or chloroquine in 96-well plates and the pLDH activity was evaluated using a modified Makler protocol. Mosquito infectivity was measured by the standard membrane feeding assay.; type: functional; parameters: concentration or dose not given beside the values

SMILES | Growth Inhibition [%]
COc1ccc2c(c1)C1(Nc3ccccc3-c3nc4ccccc4n31)C(=O)N2 (stereo not drawn) | 23.3334
CCOc1cc(CNC(C)C(O)c2ccccc2)cc(Cl)c1OCC (stereo not drawn) | 17.857
CCOc1c(Cl)cc(CNCC(O)c2ccccc2)cc1OC (stereo not drawn) | 20.5848
OC(CNCC1CCCO1)Cn1c2ccc(Cl)cc2c2cc(Cl)ccc21 (stereo not drawn) | 10.6906
COc1ccc2nc(C)cc(Nc3ccccc3O)c2c1 | 10.6942
CCn1nc(-c2ccc(C(=O)OC)cc2)nc2c(=O)n(C)c(=O)nc1-2 | 19.8788
Cc1cc(NC(=O)c2cccc(C(F)(F)F)c2)n(-c2nc(-c3ccc4c(c3)OCO4)cs2)n1 | 1.3202
CC1(c2ccccc2)Nc2ccccc2-c2nc3ccccc3n21 (stereo not drawn) | 8.0798
COc1cccc(C2(C)Nc3ccccc3-c3nc4ccccc4n32)c1 (stereo not drawn) | 2.1776
CC(C)CNC(=O)c1c(N)n(CCc2ccccc2F)c2nc3ccccc3nc12 | -1.2922
O=C(Nc1ccccc1O)c1ccc(Oc2cccc(C(=O)Nc3ccccc3O)c2)cc1 | 23.386
O=C(Nc1ccc(Br)cc1)Nc1cccc(Cl)c1 | 8.8754
Oc1ccccc1CN1CCC2(CCCN(Cc3ccccc3F)C2)C1 (stereo not drawn) | 46.3042
COc1cccc(O)c1CN1CCC2(CCCN(Cc3ccc(F)cc3)C2)C1 (stereo not drawn) | 38.0312
COc1cccc(Nc2nc(NCCO)c3ccccc3n2)c1.Cl | 21.665
Cc1ccc(-c2cc(C(=O)Nc3ccc(S(=O)(=O)N4CCCCC4)cc3)[nH]n2)c(O)c1 | 28.7504
COc1ccc(C(=O)Nc2ccc3nc(N4CCCCC4)cc(C)c3c2)cc1OC | 11.0486
COCCNCC(O)Cn1c2ccc(Cl)cc2c2cc(Cl)ccc21 (stereo not drawn) | 45.598
COc1ccc(N2CCN(C(CNC(=O)C3CCCCC3)c3ccc4c(c3)OCO4)CC2)cc1 (stereo not drawn) | 22.7332
COc1ccc2nc(C)cc(Nc3ccc(Cl)cc3)c2c1 | 15.7236
FC(F)(F)c1ccc(Nc2nnnc3ccccc23)cc1 | 21.2738
O=C(NC1CCN(Cc2ccccc2)CC1)c1cc(-c2ccncc2)nc2ccc(Cl)cc12 | 12.9682
CCC(O)c1ccc(Br)cc1NC(=O)c1cccc(Cl)c1 (stereo not drawn) | 24.26
COc1cc2cc(C(=O)Nc3ccccc3)c(N)nc2cc1OC | 2.432
COc1cccc(NC(=O)Cn2c(C)c(C#N)c3ccccc32)c1 | 15.89
Cn1c(=O)c2cc(C(=O)NCCCN3CCCCCC3)sc2c2ccccc21 | 15.852

SMILES | Growth Inhibition [%]
Cc1[nH]c(-c2ccc(F)cc2)cc1C(=O)NC1CCN(Cc2ccccc2)CC1 | 9.4322
COc1ccc(CCN2CCC(CN(C)Cc3cnn(-c4ccccc4)c3)CC2)cc1 | 34.868
O=C(O)C(=O)O.Oc1ccccc1CN1CCN(C(c2ccccc2)c2ccccc2)CC1 | 27.3522
O=C(NC1CCCC1)c1ccc(N2CCC(NCc3cccc(C(F)(F)F)c3)CC2)cc1 | 6.6358
CCOc1cc(Br)c(C(C)NC(=O)c2cccc(OC)c2)cc1OCC (stereo not drawn) | 15.2596
CC(C)=CCN1CCC(C(=O)Nc2ccc(-c3nc4ccccc4[nH]3)cc2)CC1 | 16.6684
CCOc1cc(Cl)c(C(C)NC(=O)c2cccc(OC)c2)cc1OCC (stereo not drawn) | 18.9364
FC(F)(F)c1cccc(Nc2nc(-c3ccccc3)nc3ncccc23)c1 | 9.5538
CCN1CCN(c2cc(C)c3cc(NC(=O)c4ccc(OC)c(OC)c4)ccc3n2)CC1 | 12.8102
CC(=O)Nc1nnc(SCc2c(C)cc(C(C)(C)C)cc2C)s1 | -6.288
Cc1ccc(Cl)cc1N1CCN(CCCNC(=O)C2CCN(c3nc4ccccc4[nH]3)CC2)CC1 | 21.502
COc1ccc(CNC2CCN(c3ccc(NC(=O)c4cccc(Cl)c4)cc3)CC2)cc1OC | 12.3618
O=C(Nc1ccc(CN2CCOCC2)cc1)c1ccc(-c2cc(Cl)ccc2Cl)o1 | 12.3128
Cc1ccc(CSCc2ccc(C(=O)NC3CC3)o2)cc1 | 9.7118
CC(NCc1ccccc1)c1cc(Cl)ccc1O (stereo not drawn) | 40.6308
CN1CCN(c2c3c(c(C#N)c4nc5ccccc5n24)CCC3)CC1 | 7.7684
Cc1cc(Nc2cccc(F)c2)nc(NCc2ccccc2)n1 | 7.8192
CCOc1ccc(C2N(C)c3ccccc3N2C)cc1 | 9.8332
COCCn1c(C)nc2ccccc2c1=O | 4.3894
O=C(Nc1cccc(-c2nc3ccccc3[nH]2)c1)c1cccc(NC(=O)c2ccco2)c1 | 6.1984
COc1ccc(C(=O)Nc2ccc(Cl)cc2C(=O)Nc2ccncc2)cc1 | 8.2224
O=C(NC1CCN(Cc2ccccc2)CC1)c1cc(-c2cccnc2)nc2ccc(Cl)cc12 | 12.1742
O=C(Nc1ccc(CN2CCOCC2)cc1)c1ccc(-c2ccc(Br)cc2)o1 | 17.4274
CCN(Cc1ccccc1)C1CCN(Cc2cc(Br)ccc2O)CC1.O=C(O)C(=O)O | 47.2545
CC(=O)NCCc1nc2ccccc2n1Cc1ccc(C(C)C)cc1 | 10.8344
COc1nc(Nc2ccc(C(C)C)cc2)nc(OC)n1 | 1.041

SMILES | Growth Inhibition [%]
CCN(CC)CCNc1ncnc2c1[nH]c1ccc(Br)cc12 | 8.817
CCOc1cccc(C(=O)Nc2ccc(-c3nc4ccccc4[nH]3)cc2)c1 | 7.5178
CN(C)c1ccc(-c2nc3cc(N)ccc3[nH]2)cc1 | 18.3914
O=C(CSc1ccc2nnc(-c3cccc(F)c3)n2n1)Nc1ccc2c(c1)OCO2 | 8.1908
Cc1c(C)n(Cc2ccc(F)cc2)c2ccc(C(=O)NCc3ccco3)cc12 | 19.2814
CCN(CC)c1ccc(NC(=O)c2cccs2)cc1 | 3.9542
CCCC(c1nnnn1C1CCCCC1)N1CCN(C(=O)c2ccco2)CC1.Cl (stereo not drawn) | 10.3688
COc1ccc(-c2nonc2NC(=O)c2cccc(Cl)c2)cc1OC | 6.9258
Cc1cc(NC(=O)c2ccc(-c3ccccc3)cc2)no1 | 4.97
CC(C)(C)C(=O)Nc1ccc(C(=O)Nc2cccc(-c3nc4ccccc4[nH]3)c2)cc1 | 13.3516
COc1ccc(-c2nonc2NC(=O)c2cccc(C)c2)cc1OC | 3.7758
COc1cccc(-c2nn(C)c3sc(C(=O)NCCN4CCN(c5ccccc5F)CC4)cc23)c1 | 20.4084
O=C(Nc1ccc(N2CCN(Cc3ccccc3)CC2)cc1)c1cccs1.O=C(O)C(F)(F)F | -8.6144
Cc1ccc(CN2CCC(C(=O)Nc3ccc(-c4cc5ccccc5[nH]4)cc3)CC2)o1 | 25.7326
O=C(Nc1ccc(N2CCCCC2)c(Cl)c1)c1ccc(Br)o1 | -4.8588
O=C(Nc1ccsc1C(=O)NC1CCCCC1)c1ccc(F)cc1 | 7.047
CCOc1cc2c(cc1OCC)C(c1cc(C)c(O)c(C)c1)NCC2.Cl (stereo not drawn) | 25.854
O=C1CC(O)(C(F)(F)C(F)(F)F)Oc2ccccc21 (stereo not drawn) | 1.4958
COc1cc(SC)ccc1C(=O)N1CCCC(C)C1 (stereo not drawn) | 14.445
O=C(Nc1cccc(C(F)(F)F)c1)c1cc(Cl)ccc1O | 14.365
CC(C)(C)c1ccc(C(=O)Nc2nc3ccccc3s2)cc1 | 9.3876
CC(C)c1ccc(CNCC(O)c2ccccc2)cc1.Cl (stereo not drawn) | 37.0308
CC1CC(C)CN(C(=O)c2ccc(Cl)cc2Cl)C1 (stereo not drawn) | -2.8594
COc1ccccc1CNC(=O)C1c2ccccc2C(=O)N(CC(C)C)C1c1cccs1 (stereo not drawn) | 12.474
OC(CNC1CCCC1)Cn1c2ccccc2c2ccccc21 (stereo not drawn) | 39.5038
COc1ccc(C2N(C)c3ccccc3N2C)cc1 | 3.9982

SMILES | Growth Inhibition [%]
CCN(CC)c1cc(C)c2cc(NC(=O)c3cccc(OC)c3)ccc2n1 | 11.335
Cc1ccc(NC(=O)Nc2cccc(Cl)c2)cc1F | 3.3088
O=C(Nc1ccc(F)c(Cl)c1)Nc1ccc(Cl)c(Cl)c1 | 4.6714
CCOc1ccc(-c2nc(NC(=O)c3cccc(S(C)(=O)=O)c3)sc2C)cc1 | 10.5858
O=c1nc(C=Cc2ccc(Cl)cc2)oc2ccccc12 | 11.0552
O=C(NCc1ccco1)C1CCN(S(=O)(=O)c2ccc(Br)cc2)CC1 | 6.982
Clc1ccc2[nH]c3c(NCCCN4CCOCC4)ncnc3c2c1 | 9.617
COc1ccc(Nc2nc(NCc3ccccc3)c3ccccc3n2)cc1 | 17.5424
COc1cc2c(cc1OC)C1=NNC(=O)C1=NC(C)(C)C2 | 35.8316
COc1ccccc1N1CCN(C(CNS(=O)(=O)c2ccc(Cl)cc2)c2cccnc2)CC1 (stereo not drawn) | 14.3398
Oc1c2c(nc3cc(-c4ccccc4)nn13)CCCC2 | 5.0802
CCCc1c(C)nc2ccccc2c1O | 34.5652
CCCCc1c(C)nc2c(OC)cccc2c1O | 10.7044
CCOc1c(Cl)cc(CNC(C)C(O)c2ccccc2)cc1OC (stereo not drawn) | 22.4902
CCOC(=O)C1CCN(C(=O)CN2C(=O)c3ccccc3C2c2c[nH]c3ccccc23)CC1 (stereo not drawn) | 48.711
CCOc1ccc(CCNC(=O)c2cccs2)cc1OCC | 6.4232
CCCN(CCC)CCCNC(=O)c1cc2c(-c3ccc(OC)c(OC)c3)nn(C)c2s1 | 9.751
Cc1cc(N2CCN(C3CCCC3)CC2)n2c(nc3ccccc32)c1C#N | 0.943
CN1c2ccccc2N(C)C1c1ccc2c(c1)OCO2 | 17.3464
CCCCOc1ccc(C(=O)Nc2cc(C)on2)cc1 | -2.1422
O=C(NCC1Cc2cccc(-c3ccncc3)c2O1)c1csc2c1CCCC2 (stereo not drawn) | 15.175
CCc1ccc(Nc2cc(C)nc3nc(C)nn23)cc1 | -2.3802
Br.CCN(CC)S(=O)(=O)c1ccc(-c2csc(Nc3ccc(C)c(C)c3)n2)cc1 | 9.3564
C=C(C)CCC(C)N1CCC(N2CCC(C(=O)NCCc3ccccc3)CC2)CC1 (stereo not drawn) | 9.4772
C=CCc1c(C)nc2ccccc2c1O | 8.3394
